Test results reported in patent US8137705B2 (priority 2005, dated 2012).
“Also recorded” adds a separate entry of the source.

Columns and labels:
Type in all cases: cell-based
E. coli O157:H7 [1] = experiment: E. coli O157:H7 counts in water with rumen content treated with ozone; settings: for E. coli O157:H7 (log10 cfu/ml) at min: 0: 0 min; for E. coli O157:H7 (log10 cfu/ml) at min: 1: 1 min; for E. coli O157:H7 (log10 cfu/ml) at min: 2: 2 min; for E. coli O157:H7 (log10 cfu/ml) at min: 5: 5 min; for E. coli O157:H7 (log10 cfu/ml) at min: 10: 10 min; for E. coli O157:H7 (log10 cfu/ml) at min: 20: 20 min
Procedure: Ozone was produced by an laboratory scale ozone generator (Model H-50, Hess Machine International, Ephrata, Pa.) equipped with an oxygen concentrator (Model AS-12, AirSep, Buffalo, N.Y.) and ozone concentrations (ppm) were measured by the indigo calorimeter method. Ozonated (22-24 ppm at 5° C.) water was mixed with rumen content at ratios of 100:1, 50:1, 25:1, 10:1, and 5:1. MilliQ water (Milli-Q Synthesis A10, Millipore Corp. Brillerica, Mass.) was used as the control. One ml of a mixture of 5 strains of E. coli O157:H7 (10^8 cfu) was mixed with 199 ml of the ozonated water with rumen content at 5° C. and sampled from 0 to 20 min. At each sampling time, 1 ml was removed, and immediately mixed with 9 ml of neutralizing buffer and serially (1:10) diluted and a volume of 0.1 ml from each dilution tube was plated on SMA-NA and TSA-NA plates in duplicate. Plates were incubated at 37° C. for 24 h. Presumptive E. coli O157:H7 colonies were counted and confirmed according to the method described above. All studies were done in duplicate.

E. coli O157:H7 [2] = experiment: E. coli O157:H7 counts in water containing rumen content or feces treated with chemicals or chemical combinations; settings: for E. coli O157:H7 counts (log10 cfu/ml) at min 0 / E. coli O157:H7 counts (log10 cfu/ml) at min 2 / E. coli O157:H7 counts (log10 cfu/ml) at min 5 / E. coli O157:H7 counts (log10 cfu/ml) at min 10 / E. coli O157:H7 counts (log10 cfu/ml) at min 20 / E. coli O157:H7 counts (log10 cfu/ml) at min 30 / E. coli O157:H7 counts (log10 cfu/ml) at min 60 / E. coli O157:H7 counts (log10 cfu/ml) at min 120: 21° C.; for E. coli O157:H7 counts (log10 cfu/ml) at min 0: 0 min; for E. coli O157:H7 counts (log10 cfu/ml) at min 2: 2 min; for E. coli O157:H7 counts (log10 cfu/ml) at min 5: 5 min; for E. coli O157:H7 counts (log10 cfu/ml) at min 10: 10 min; for E. coli O157:H7 counts (log10 cfu/ml) at min 20: 20 min; for E. coli O157:H7 counts (log10 cfu/ml) at min 30: 30 min; for E. coli O157:H7 counts (log10 cfu/ml) at min 60: 60 min; for E. coli O157:H7 counts (log10 cfu/ml) at min 120: 120 min
E. coli O26:H11 = E. coli O26:H11 counts in water containing rumen content or feces treated with chemical combinations; settings: 21° C.; for E. coli O26:H11 counts (log10 cfu/ml) at min: 0: 0 min; for E. coli O26:H11 counts (log10 cfu/ml) at min: 2: 2 min; for E. coli O26:H11 counts (log10 cfu/ml) at min: 5: 5 min; for E. coli O26:H11 counts (log10 cfu/ml) at min: 10: 10 min; for E. coli O26:H11 counts (log10 cfu/ml) at min: 20: 20 min; for E. coli O26:H11 counts (log10 cfu/ml) at min: 30: 30 min; for E. coli O26:H11 counts (log10 cfu/ml) at min: 60: 60 min; for E. coli O26:H11 counts (log10 cfu/ml) at min: 120: 120 min
E. coli O111:NM = E. coli O111:NM counts in water containing rumen content or feces treated with chemical combinations; settings: 21° C.; for E. coli O111:NM counts (log10 cfu/ml) at min 0: 0 min; for E. coli O111:NM counts (log10 cfu/ml) at min 2: 2 min; for E. coli O111:NM counts (log10 cfu/ml) at min 5: 5 min; for E. coli O111:NM counts (log10 cfu/ml) at min 10: 10 min; for E. coli O111:NM counts (log10 cfu/ml) at min 20: 20 min; for E. coli O111:NM counts (log10 cfu/ml) at min 30: 30 min; for E. coli O111:NM counts (log10 cfu/ml) at min 60: 60 min; for E. coli O111:NM counts (log10 cfu/ml) at min 120: 120 min
[3] = 22-24 ppm ozone, Ozonated water only (no rumen content), 5° C.
[4] = 22-24 ppm ozone, water:rumen content 20:1, 5° C.
[5] = 22-24 ppm ozone, water:rumen content 50:1, 5° C.
[6] = 22-24 ppm ozone, water:rumen content 100:1, 5° C.
[7] = 22-24 ppm ozone, water:rumen content 200:1, 5° C.
[8] = water containing feces (20:1, v/w)
[9] = water containing rumen content (10:1, v/w)

## O=[O+][O-] [ozone]
E. coli O157:H7 [1]; 22-24 ppm ozone, 5° C., water with no rumen content, direct plating
  killing of 10^6-10^7 E. coli O157:H7/ml: undetectable level
E. coli O157:H7 [1]; 22-24 ppm ozone, 50 parts water to 1 part rumen content
  E. coli O157:H7 inactivation: Little to no E. coli O157:H7 inactivation
E. coli O157:H7 [1]; 22-24 ppm ozone, 100 parts water to 1 part rumen content or more
  effect of rumen content on antimicrobial activity of ozone: neutralized; also recorded: greatly decreased the antimicrobial activity
E. coli O157:H7 [1]; [3]
  E. coli O157:H7 (log10 cfu/ml) at min: 0: <1.7 log10 cfu/ml
  E. coli O157:H7 (log10 cfu/ml) at min: 1: <1.7 log10 cfu/ml
  E. coli O157:H7 (log10 cfu/ml) at min: 2: <1.7 log10 cfu/ml
  E. coli O157:H7 (log10 cfu/ml) at min: 5: <1.7 log10 cfu/ml
  E. coli O157:H7 (log10 cfu/ml) at min: 10: <1.7 log10 cfu/ml
  E. coli O157:H7 (log10 cfu/ml) at min: 20: <1.7 log10 cfu/ml
E. coli O157:H7 [1]; [4]
  E. coli O157:H7 (log10 cfu/ml) at min: 0: 5.6 log10 cfu/ml
  E. coli O157:H7 (log10 cfu/ml) at min: 1: 5.2 log10 cfu/ml
  E. coli O157:H7 (log10 cfu/ml) at min: 2: 5.1 log10 cfu/ml
  E. coli O157:H7 (log10 cfu/ml) at min: 5: 5.1 log10 cfu/ml
  E. coli O157:H7 (log10 cfu/ml) at min: 10: 5.4 log10 cfu/ml
  E. coli O157:H7 (log10 cfu/ml) at min: 20: 5.2 log10 cfu/ml
E. coli O157:H7 [1]; [5]
  E. coli O157:H7 (log10 cfu/ml) at min: 0: 6.2 log10 cfu/ml
  E. coli O157:H7 (log10 cfu/ml) at min: 1: 6.2 log10 cfu/ml
  E. coli O157:H7 (log10 cfu/ml) at min: 2: 6.4 log10 cfu/ml
  E. coli O157:H7 (log10 cfu/ml) at min: 5: 6.4 log10 cfu/ml
  E. coli O157:H7 (log10 cfu/ml) at min: 10: 6.5 log10 cfu/ml
  E. coli O157:H7 (log10 cfu/ml) at min: 20: 6.3 log10 cfu/ml
E. coli O157:H7 [1]; [6]
  E. coli O157:H7 (log10 cfu/ml) at min: 0: 5.2 log10 cfu/ml
  E. coli O157:H7 (log10 cfu/ml) at min: 1: 5.4 log10 cfu/ml
  E. coli O157:H7 (log10 cfu/ml) at min: 2: 5.5 log10 cfu/ml
  E. coli O157:H7 (log10 cfu/ml) at min: 5: 5.2 log10 cfu/ml
  E. coli O157:H7 (log10 cfu/ml) at min: 10: 4.5 log10 cfu/ml
  E. coli O157:H7 (log10 cfu/ml) at min: 20: 4.8 log10 cfu/ml
E. coli O157:H7 [1]; [7]
  E. coli O157:H7 (log10 cfu/ml) at min: 0: <1.7 log10 cfu/ml
  E. coli O157:H7 (log10 cfu/ml) at min: 1: <1.7 log10 cfu/ml
  E. coli O157:H7 (log10 cfu/ml) at min: 2: <1.7 log10 cfu/ml
  E. coli O157:H7 (log10 cfu/ml) at min: 5: <1.7 log10 cfu/ml
  E. coli O157:H7 (log10 cfu/ml) at min: 10: <1.7 log10 cfu/ml
  E. coli O157:H7 (log10 cfu/ml) at min: 20: <1.7 log10 cfu/ml
E. coli O157:H7 [1]; ozone 22-24 ppm at 5° C. or 8-12 ppm at 21° C., rumen content at ratios of 50:1 and higher
  effect on killing E. coli O157:H7: minimal effect

## CCCCCCCC(=O)O [0.05% caprylic acid, caprylic acid]
E. coli O157:H7 [2]; butyric acid >2%, caprylic acid >0.1%, data not shown
  inactivation of E. coli O157:H7 within 20 minutes: substantial inactivation
E. coli O157:H7 [2]; [8]
  E. coli O157:H7 counts (log10 cfu/ml) at min 0: 6.0 log10 cfu/ml
  E. coli O157:H7 counts (log10 cfu/ml) at min 2: 5.6 log10 cfu/ml
  E. coli O157:H7 counts (log10 cfu/ml) at min 5: 4.3 log10 cfu/ml
  E. coli O157:H7 counts (log10 cfu/ml) at min 10: 2.3 log10 cfu/ml
  E. coli O157:H7 counts (log10 cfu/ml) at min 20: 2.0 log10 cfu/ml
  E. coli O157:H7 counts (log10 cfu/ml) at min 30: 2.0 log10 cfu/ml
  E. coli O157:H7 counts (log10 cfu/ml) at min 60: 2.0 log10 cfu/ml
  E. coli O157:H7 counts (log10 cfu/ml) at min 120: 1.7 log10 cfu/ml
E. coli O157:H7 [2]; [9]
  E. coli O157:H7 counts (log10 cfu/ml) at min 0: 6.0 log10 cfu/ml
  E. coli O157:H7 counts (log10 cfu/ml) at min 2: 6.0 log10 cfu/ml
  E. coli O157:H7 counts (log10 cfu/ml) at min 5: 6.0 log10 cfu/ml
  E. coli O157:H7 counts (log10 cfu/ml) at min 10: 5.9 log10 cfu/ml
  E. coli O157:H7 counts (log10 cfu/ml) at min 20: 6.0 log10 cfu/ml
  E. coli O157:H7 counts (log10 cfu/ml) at min 30: 5.9 log10 cfu/ml
  E. coli O157:H7 counts (log10 cfu/ml) at min 60: 5.9 log10 cfu/ml
  E. coli O157:H7 counts (log10 cfu/ml) at min 120: 6.0 log10 cfu/ml
E. coli O26:H11; [8]
  E. coli O26:H11 counts (log10 cfu/ml) at min: 0: 5.5 log10 cfu/ml
  E. coli O26:H11 counts (log10 cfu/ml) at min: 2: 5.4 log10 cfu/ml
  E. coli O26:H11 counts (log10 cfu/ml) at min: 5: 5.5 log10 cfu/ml
  E. coli O26:H11 counts (log10 cfu/ml) at min: 10: 5.5 log10 cfu/ml
  E. coli O26:H11 counts (log10 cfu/ml) at min: 20: 5.3 log10 cfu/ml
  E. coli O26:H11 counts (log10 cfu/ml) at min: 30: 5.2 log10 cfu/ml
  E. coli O26:H11 counts (log10 cfu/ml) at min: 60: 5.2 log10 cfu/ml
  E. coli O26:H11 counts (log10 cfu/ml) at min: 120: 5.0 log10 cfu/ml
E. coli O26:H11; [9]
  E. coli O26:H11 counts (log10 cfu/ml) at min: 0: 5.3 log10 cfu/ml
  E. coli O26:H11 counts (log10 cfu/ml) at min: 2: 5.4 log10 cfu/ml
  E. coli O26:H11 counts (log10 cfu/ml) at min: 5: 5.2 log10 cfu/ml
  E. coli O26:H11 counts (log10 cfu/ml) at min: 10: 5.4 log10 cfu/ml
  E. coli O26:H11 counts (log10 cfu/ml) at min: 20: 5.3 log10 cfu/ml
  E. coli O26:H11 counts (log10 cfu/ml) at min: 30: 5.4 log10 cfu/ml
  E. coli O26:H11 counts (log10 cfu/ml) at min: 60: 5.4 log10 cfu/ml
  E. coli O26:H11 counts (log10 cfu/ml) at min: 120: 5.4 log10 cfu/ml
E. coli O111:NM; [8]
  E. coli O111:NM counts (log10 cfu/ml) at min 0: 5.7 log10 cfu/ml
  E. coli O111:NM counts (log10 cfu/ml) at min 2: 5.5 log10 cfu/ml
  E. coli O111:NM counts (log10 cfu/ml) at min 5: 5.7 log10 cfu/ml
  E. coli O111:NM counts (log10 cfu/ml) at min 10: 5.5 log10 cfu/ml
  E. coli O111:NM counts (log10 cfu/ml) at min 20: 5.6 log10 cfu/ml
  E. coli O111:NM counts (log10 cfu/ml) at min 30: 5.7 log10 cfu/ml
  E. coli O111:NM counts (log10 cfu/ml) at min 60: 5.5 log10 cfu/ml
  E. coli O111:NM counts (log10 cfu/ml) at min 120: 5.4 log10 cfu/ml
E. coli O111:NM; [9]
  E. coli O111:NM counts (log10 cfu/ml) at min 0: 5.6 log10 cfu/ml
  E. coli O111:NM counts (log10 cfu/ml) at min 2: 5.5 log10 cfu/ml
  E. coli O111:NM counts (log10 cfu/ml) at min 5: 5.7 log10 cfu/ml
  E. coli O111:NM counts (log10 cfu/ml) at min 10: 5.5 log10 cfu/ml
  E. coli O111:NM counts (log10 cfu/ml) at min 20: 5.8 log10 cfu/ml
  E. coli O111:NM counts (log10 cfu/ml) at min 30: 5.6 log10 cfu/ml
  E. coli O111:NM counts (log10 cfu/ml) at min 60: 5.4 log10 cfu/ml
  E. coli O111:NM counts (log10 cfu/ml) at min 120: 5.5 log10 cfu/ml
